This note sets out measurements from patent US7834011B2, “Heterocyclylalkyl derivatives as novel inhibitors of histone deacetylase” (Janssen Pharmaceutica N.V., priority 2006, dated 2010).

This assay relates to A2780 ovarian carcinoma cells. Kind of assay: Antiproliferative activity on A2780 cells (MTT). The class given is cell-based. As to conditions: Homo sapiens, 96 h, four days of incubation, read-out: Cellular activity pIC50 C.2 (converted). The method, then: Cellular activity of the compounds of formula (I) was determined on A2780 tumour cells using a colorimetric assay for cell toxicity or survival (Mosmann Tim, Journal of Immunological Methods 65: 55-63, 1983)(see example C.2).
All compounds tested were dissolved in DMSO and further dilutions were made in culture medium. Final DMSO concentrations never exceeded 0.1% (v/v) in cell proliferation assays. Controls contained A2780 cells and DMSO without compound and blanks contained DMSO but no cells. MTT was dissolved at 5 mg/ml in PBS. A glycine buffer comprised of 0.1 M glycine and 0.1 M NaCl buffered to pH 10.5 with NaOH (1 N) was prepared (all reagents were from Merck).
The human A2780 ovarian carcinoma cells (a kind gift from Dr. T. C. Hamilton [Fox Chase Cancer Centre, Pennsylvania, USA]) were cultured in RPMI 1640 medium supplemented with 2 mM L-glutamine, 50 μg/ml gentamicin and 10% fetal calf serum. Cells were routinely kept as monolayer cultures at 37° C. in a humidified 5% CO2 atmosphere. Cells were passaged once a week using a trypsin/EDTA solution at a split ratio of 1:40. All media and supplements were obtained from Life Technologies. Cells were free of mycoplasma contamination as determined using the Gen-Probe Mycoplasma Tissue Culture kit (supplier: BioMérieux).
Cells were seeded in NUNC™ 96-well culture plates (Supplier: Life Technologies) and allowed to adhere to the plastic overnight. Densities used for plating were 1500 cells per well in a total volume of 200 μl medium. After cell adhesion to the plates, medium was changed and drugs and/or solvents were added to a final volume of 200 μl. Following four days of incubation, medium was replaced by 200 μl fresh medium and cell density and viability was assessed using an MTT-based assay. To each well, 25 μl MTT solution was added and the cells were further incubated for 2 hours at 37° C. The medium was then carefully aspirated and the blue MTT-formazan product was solubilized by addition of 25 μl glycine buffer followed by 100 μl of DMSO. […] Within an experiment, the results for each experimental condition are the mean of 3 replicate wells. For initial screening purposes, compounds were tested at a single fixed concentration of 10^−6 M. For active compounds, the experiments were repeated to establish full concentration-response curves. For each experiment, controls (containing no drug) and a blank incubation (containing no cells or drugs) were run in parallel. The blank value was subtracted from all control and sample values. For each sample, the mean value for cell growth (in absorbance units) was expressed as a percentage of the mean value for cell growth of the control. […] Herein the effects of test compounds are expressed as pIC50 (the negative log value of the IC50-value)(see Table F-2).

Regarding `Cn1c(CNCC2CCN(c3ncc(C(=O)NO)cn3)CC2)nc2ccccc21` [Compound 3], the IC50 was 100 nM.
